From publication PMC12112332, “Characterization of Novel and Known Activators of Cannabinoid Receptor Subtype 2 Reveals Mixed Pharmacology That Differentiates Mycophenolate Mofetil and GW-842,166X from MDA7” (International Journal of Molecular Sciences, 2025)
Where two headings read alike, the source gives them in different places.

Target: Human CB2 (Homo sapiens, UniProt P34972)
Experiment: cAMP inhibition assay (HitHunter cAMP XS+, Eurofins) in human CB2 cells
Type: cell-based
Details: for hCB2 cAMP (−) CP55,940 % Max: absence of CP55,940; for hCB2 cAMP (−) CP55,940 % Max / hCB2 cAMP (+) CP55,940 % Max: % of maximal CP55,940 response; for hCB2 cAMP (+) CP55,940 % Max: presence of EC20 CP55,940
Protocol: Assays were performed by Eurofins Discovery (Freemont, CA, USA). cAMP Hunter cell lines were expanded from freezer stocks according to standard procedures. Human CB2 cells were seeded in a total volume of 20 μL into white-walled, 384-well microplates and incubated at 37 °C for the appropriate time prior to testing. cAMP modulation was determined using the DiscoverX HitHunter cAMP XS+ assay. For agonist determination, cells were incubated with samples in the presence of EC80 forskolin to induce a response. Media was aspirated from cells and replaced with 10 μL HBSS/10 mM HEPES. Intermediate dilution of sample stocks was performed to generate 4× sample in assay buffer, and 5 μL of 4× sample was added to cells. Then, 5 μL of 4× EC80 forskolin diluted in HBSS/HEPES was added and incubated at 37 °C for 30 min. The final assay vehicle concentration was 1%. For allosteric determination, cells were pre-incubated with the sample followed by agonist induction at the EC20 concentration. Media was aspirated from cells and replaced with 10 μL HBSS/10 mM HEPES. Intermediate dilution of sample stocks was performed to generate 4× samples in assay buffer. Then, 5 μL of 4× compound was added to the cells and incubated at room temperature or 37 °C for 5 min. Subsequently, 5 μL of 4× EC20 agonist was added to the cells and incubated at 37 °C for 30 min. EC80 forskolin was included.
After appropriate compound incubation, the assay signal was generated by incubation with 5 μL cAMP XS+ Ab reagent, followed by 20 μL cAMP XS+ ED/CL lysis cocktail for one hour at room temperature. Then, 20 μL cAMP XS+ EA reagent was added and incubated for two hours at room temperature. Microplates were read following signal generation with a PerkinElmer Envision^TM instrument for chemiluminescent signal detection.
Compound activity was analyzed using the CBIS data analysis suite (ChemInnovation, San Diego, CA, USA). For agonist mode assays, percentage activity was calculated using the following formula: % Activity = 100% × (1 − (mean RLU of test sample − mean RLU of MAX control)/(mean RLU of vehicle control − mean RLU of MAX control)).
For Gi positive allosteric mode assays, percentage modulation was calculated using the following formula: % Modulation = 100% × (1 − (mean RLU of test sample − mean RLU of MAX control)/(mean RLU of EC20 control − mean RLU of MAX control)).

[1] = hCB2 cAMP (+) CP55,940 pEC50, presence of EC20 CP55,940, EC80 forskolin
[2] = hCB2 cAMP (−) CP55,940 pEC50, absence of CP55,940, EC80 forskolin

Sequence of Human CB2 (P34972 whole entry): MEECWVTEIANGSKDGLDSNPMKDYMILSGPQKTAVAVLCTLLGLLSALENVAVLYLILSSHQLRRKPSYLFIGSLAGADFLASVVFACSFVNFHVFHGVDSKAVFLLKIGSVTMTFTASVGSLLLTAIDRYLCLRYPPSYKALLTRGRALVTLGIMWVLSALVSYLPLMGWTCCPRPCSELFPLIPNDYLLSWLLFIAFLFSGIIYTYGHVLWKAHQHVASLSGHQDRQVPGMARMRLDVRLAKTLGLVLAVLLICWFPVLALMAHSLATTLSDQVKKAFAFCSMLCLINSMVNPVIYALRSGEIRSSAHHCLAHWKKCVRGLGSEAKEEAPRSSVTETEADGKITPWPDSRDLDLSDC

hCB2 cAMP (−) CP55,940 pEC50 (absence of CP55,940, EC80 forskolin)	EC50 (presence of EC20 CP55,940, EC80 forskolin, read-out: hCB2 cAMP (+) CP55,940 pEC50 (converted))	SMILES	hCB2 cAMP (−) CP55,940 % Max	EC50 [1]	EC50 [2]	hCB2 cAMP (+) CP55,940 % Max
		O=C(NCC1CCOCC1)c1cnc(Nc2ccc(Cl)cc2Cl)nc1C(F)(F)F [GW-842,166X, 2-(2,4-dichloroanilino)-N-(oxan-4-ylmethyl)-4-(trifluoromethyl)pyrimidine-5-carboxamide]	120%	5.13 µM	2.04 µM	119%
		CC1(Cc2ccccc2)COc2cc(C(=O)N3CCCCC3)ccc21 (stereo not drawn) [MDA7, 1-[(3-benzyl-3-methyl-2,3-dihydro-1-benzofuran-6-yl)carbonyl]piperidine]	108%	> 10 µM	> 10 µM	111%
< 5.0	> 10 µM	COc1c(C)c2c(c(O)c1C/C=C(\C)CCC(=O)OCCN1CCOCC1)C(=O)OC2 [Mycophenolate mofetil]	46%			41%
